Measured values reported in US4603016A, “Cryogenic brine separation of water and isocyanates” (E. I. Du Pont de Nemours and Company, priority 1985, dated 1986).

Experiment: storage stability of isolated MIC preparations (GC determination of MIC content immediately following collection and after storage for two weeks)
Type: physicochemical
Conditions: for % MIC After Storage / % MIC As Isolated: GC; for % MIC After Storage: after storage for two weeks; for % MIC As Isolated: immediately following collection
Method: This example illustrates the stability of MIC preparations isolated by the process of the present invention. The procedure described in Example 1 was substantially repeated at MMF liquid feed rates of 2 mL/min. As described in Example 3, samples of the product of the brine condenser were collected for one hour periods, weighed, and yields estimated. Each sample was then analyzed by GC to determine MIC content immediately following collection, and again after storage for two weeks.

## CN=C=O [MIC, methyl isocyanate]
1st hr sample
  % MIC After Storage: 92.3%
  % MIC As Isolated: > 98%
2nd hr sample
  % MIC After Storage: 92.3%
  % MIC As Isolated: > 98%
3rd hr sample
  % MIC After Storage: 93.1%
  % MIC As Isolated: > 98%
4th hr sample
  % MIC After Storage: 95.0%
  % MIC As Isolated: > 98%
5th hr sample
  % MIC After Storage: 95.4%
  % MIC As Isolated: > 98%
Storage for two weeks, all samples
  degradation of product MIC during storage: minimal degradation
